Converted amounts (≈) assume the structure as drawn. “And” between values parts separate entries of the source, which are not always exact repeats. Equal values may be shown once.
Key:
[1] = test system: Enterococcus faecalis ATCC 29212; test: MIC, broth microdilution; format: cell-based; conditions: ATCC29212
Method: (§1) The Minimum Inhibitory Concentrations (MIC) of the extracts were determined using the broth microdilution method in accordance with the guidelines of the Clinical and Laboratory Standards Institute (CLSI) ([Clinical and Laboratory Standards Institute, 2020]). The procedure was originally based on the CLSI M27-A2 standard (1997) ([[…]]) for antifungal susceptibility testing, while the updated fourth edition (2017) was referenced to reflect current methodological standards ([[…]]).
(§2) The inocula of the tested bacterial and yeast strains were prepared following CLSI protocols, and the extracts were dissolved in DMSO to prepare stock solutions. Serial dilutions ranging from 1,250 to 0.06 μ g/mL were performed in Mueller-Hinton Broth (for bacterial strains) and RPMI-1640 medium (for yeast strains). MIC values of the extracts were determined against four g (−) bacterial strains (P. aeruginosa ATCC 27853, Escherichia coli ATCC 25922, Klebsiella pneumoniae ATCC 4352, Proteus mirabilis ATCC 14153), three g (+) bacterial strains (Staphylococcus aureus ATCC 29213, Staphylococcus epidermidis ATCC 12228, Enterococcus faecalis ATCC 29212), and three yeast strains (Candida albicans ATCC 10231, Candida parapsilosis ATCC 22019, Candida tropicalis ATCC 750).

[2] = test system: Candida parapsilosis ATCC 22019; test: MIC, broth microdilution; format: cell-based; conditions: Lodderomyces parapsilosis, ATCC22019; C. parapsilosis ATCC 22019
Method: as §1, §2

[3] = test system: Candida tropicalis ATCC 750; test: MIC, broth microdilution; format: cell-based; conditions: ATCC750, C. tropicalis ATCC 750
Method: as §1, §2

[4] = ABTS cation radical scavenging assay
Method: The ABTS cation radical scavenging assay was evaluated using 2,2′-azino-bis(3-ethylbenzothiazoline-6-sulfonic acid) according to the method developed by [Re et al. (1999)]. Extracts were dissolved in methanol at a concentration of 1 mg/mL to prepare the primary stock solutions. Aliquots of these solutions, in volumes of 2, 5, 10, and 20 μ L, were each diluted to a final volume of 40 μ L with methanol. Subsequently, 160 μ L of ABTS cation radical solution at a 7 mM concentration was introduced to each mixture. The reactions were allowed to proceed in darkness for 6 min, subsequent to which the absorbance was recorded at a wavelength of 734 nm. BHA, BHT, and α -TOC were used as positive control.

[5] = DPPH free radical scavenging assay
Method: The DPPH radical scavenging assay was evaluated using 1,1-diphenyl-2-picrylhydrazyl (DPPH) free radical according to the method developed by [Blois (1958)]. Extracts were dissolved in methanol at a concentration of 1 mg/mL to prepare the primary stock solutions. Aliquots of these solutions, in volumes of 2, 5, 10, and 20 μ L, were each diluted to a final volume of 40 μ L with methanol. Subsequently, 160 μ L of DPPH solution at a 0.1 mM concentration was introduced to each mixture. After the solutions were incubated at room temperature in the dark for 30 min, their absorbance was measured at a wavelength of 517 nm. BHA, BHT, and α -TOC were used as positive control.

[6] = Cupric reducing antioxidant capacity (CUPRAC); conditions: 450 nm
Method: The absorbance of this chelate formation is then quantified at a wavelength of 450 nm. In the CUPRAC method, according to the procedure developed by Apak et al.; Cu (II), neocuproine (2,9-dimethyl-1,10-phenanthroline), and NH4OAc buffer were added to the sample and standard solutions to achieve final concentrations of 10, 25, 50, and 100 μ g/mL. After an incubation period of 1 h, the absorbance was measured at 450 nm. BHA, BHT, and α -TOC were used as positive control ([Apak et al., 2004]).

[7] = test system: P. aeruginosa ATCC 27853; test: MIC, broth microdilution; format: cell-based; conditions: Pseudomonas aeruginosa, ATCC27853
Method: as §1, §2

[8] = test system: Proteus mirabilis ATCC 14153; test: MIC, broth microdilution; format: cell-based; conditions: P. mirabilis ATCC 14153
Method: as §1, §2

[9] = test system: Escherichia coli ATCC 25922; test: MIC, broth microdilution; format: cell-based; conditions: E. coli ATCC 25922
Method: as §1, §2

[10] = test system: Staphylococcus aureus ATCC 29213; test: MIC, broth microdilution; format: cell-based; conditions: S. aureus ATCC 29213
Method: as §1, §2

[11] = test system: Klebsiella pneumoniae ATCC 4352; test: MIC, broth microdilution; format: cell-based; conditions: K. pneumoniae ATCC 4352
Method: as §1, §2

[12] = test system: Staphylococcus epidermidis ATCC 12228; test: MIC, broth microdilution; format: cell-based; conditions: S. epidermidis ATCC 12228
Method: as §1, §2

[13] = test system: Candida albicans ATCC 10231; test: MIC, broth microdilution; format: cell-based; conditions: ATCC10231, C. albicans ATCC 10231
Method: as §1, §2

[14] = target: T1, Porcine pancreatic elastase (Sus scrofa, UniProt P00772); test: Anti-elastase assay; format: biochemical
T1 construct: Porcine pancreatic elastase (E.C. 3.4.21.36); from tissue; host or cells: porcine pancreas
T1 sequence (P00772 27-266): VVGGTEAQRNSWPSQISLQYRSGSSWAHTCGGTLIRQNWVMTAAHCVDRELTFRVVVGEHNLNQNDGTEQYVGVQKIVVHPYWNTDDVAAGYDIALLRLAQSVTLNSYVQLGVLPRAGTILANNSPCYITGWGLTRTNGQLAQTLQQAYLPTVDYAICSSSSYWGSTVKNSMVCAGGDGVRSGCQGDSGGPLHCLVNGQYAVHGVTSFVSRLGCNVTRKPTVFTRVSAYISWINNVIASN
Method: The elastase inhibition assay was conducted using a spectrophotometric method developed by [Lee et al. (1999)]. Porcine pancreatic elastase (E.C. 3.4.21.36) at a concentration of 3.33 mg/mL was used as the enzyme and dissolved in 0.2 mM Tris-HCl buffer (pH 8.0). The substrate, N-Succinyl-Ala-Ala-Ala-p-nitroanilide (SANA), was prepared in the same buffer at a concentration of 1.6 mM. For each reaction, 50 μ L of buffer, 25 μ L of enzyme solution, and 50 μ L of the test extract were pre-incubated at room temperature for 15 min before the addition of SANA. Epigallocatechin gallate (EGCG) was used as the positive control, while ethanol served as the negative control. The reaction was initiated by adding 125 μ L of the substrate solution to the mixture, followed by incubation at room temperature for 20 min. The absorbance change was then measured at 410 nm.

[15] = target: α-Glucosidase; conditions: flavonoids isolated from H. attenuatum; ref Jin et al., 2021; cited from earlier work

Row | Compound | ABTS (% Inhibition) ([4]; 10 µg/mL) | ABTS (% Inhibition) ([4]; 25 µg/mL) | ABTS (% Inhibition) ([4]; 50 µg/mL) | ABTS (% Inhibition) ([4]; 100 µg/mL) | DPPH (% Inhibition) ([5]; 10 µg/mL) | DPPH (% Inhibition) ([5]; 25 µg/mL) | DPPH (% Inhibition) ([5]; 50 µg/mL) | DPPH (% Inhibition) ([5]; 100 µg/mL) | CUPRAC (Absorbance) ([6]; 10 µg/mL) | CUPRAC (Absorbance) ([6]; 25 µg/mL) | CUPRAC (Absorbance) ([6]; 50 µg/mL) | CUPRAC (Absorbance) ([6]; 100 µg/mL) | further results
1 | NCC[C@H](O)C(=O)N[C@@H]1C[C@H](N)[C@@H](O[C@H]2O[C@H](CN)[C@@H](O)[C@H](O)[C@H]2O)[C@H](O)[C@H]1O[C@H]1O[C@H](CO)[C@@H](O)[C@H](N)[C@H]1O [Amikacin] | – | – | – | – | – | – | – | – | – | – | – | – | MIC [1]: 128 µg/mL (≈ 219 µM)
2 | C[C@@H]1[C@H](O)[C@@H](C)/C=C/C=C/C=C/C=C/C=C/C=C/C=C/[C@H](O[C@@H]2O[C@H](C)[C@@H](O)[C@H](N)[C@@H]2O)C[C@@H]2O[C@](O)(C[C@@H](O)C[C@@H](O)[C@H](O)CC[C@@H](O)C[C@@H](O)CC(=O)O[C@H]1C)C[C@H](O)[C@H]2C(=O)O [Amphotericin B] | – | – | – | – | – | – | – | – | – | – | – | – | MIC [2]: 1 µg/mL (≈ 1.08 µM); MIC [3]: 0.5 µg/mL (≈ 0.541 µM)
3 | COc1ccc(O)c(C(C)(C)C)c1 [BHA] | 63.94 ± 0.18% | 78.23 ± 1.08% | 87.41 ± 0.16% | 87.62% | 62.00 ± 0.90% | 71.86 ± 0.76% | 74.48 ± 0.35% | 75.23% | 0.838 ± 0.03 | 1.647 ± 0.18 | 2.753 ± 0.09 | 3.769 ± 0.05 and 3.769 | –
4 | Cc1cc(C(C)(C)C)c(O)c(C(C)(C)C)c1 [BHT] | 76.35 ± 0.78% | 88.00 ± 2.49% | 88.96 ± 0.13% | 89.13% | 39.28 ± 1.03% | 60.68 ± 4.18% | 69.14 ± 1.84% | 76.17% | 0.652 ± 0.01 | 1.211 ± 0.18 | 2.040 ± 0.31 | 3.559 ± 0.27 and 3.559 | –
5 | CC(C)(O/N=C(\C(=O)N[C@@H]1C(=O)N2C(C(=O)[O-])=C(C[n+]3ccccc3)CS[C@H]12)c1csc(N)n1)C(=O)O [Ceftazidime] | – | – | – | – | – | – | – | – | – | – | – | – | MIC [7]: 2.4 µg/mL (≈ 4.39 µM)
6 | CO/N=C(\C(=O)N[C@@H]1C(=O)N2C(C(=O)[O-])=C(COC(N)=O)CS[C@H]12)c1ccco1.[Na+] [Cefuroxime-Na] | – | – | – | – | – | – | – | – | – | – | – | – | MIC [8]: 2.4 µg/mL; MIC [9]: 4.9 µg/mL; MIC [10]: 1.2 µg/mL; MIC [11]: 4.9 µg/mL; MIC [12]: 9.8 µg/mL
7 | Clc1ccccc1C(c1ccccc1)(c1ccccc1)n1ccnc1 [Clotrimazole] | – | – | – | – | – | – | – | – | – | – | – | – | MIC [13]: 4.9 µg/mL (≈ 14.2 µM)
8 | C[C@H]1[C@H](C)CC[C@]2(C(=O)O)CC[C@]3(C)C(=CC[C@@H]4[C@@]5(C)CC[C@H](O)C(C)(C)[C@@H]5CC[C@]43C)[C@H]12 [Ursolic acid] | – | – | – | – | – | – | – | – | – | – | – | – | IC50 [14]: 30.2 µM
9 | O=c1c(O[C@@H]2OC[C@H](O)[C@H](O)[C@H]2O)c(-c2ccc(O)c(O)c2)oc2cc(O)cc(O)c12 [guaijaverin] | – | – | – | – | – | – | – | – | – | – | – | – | IC50 [15]: 17.2 ± 0.75 µM
10 | Cc1c(C)c2c(c(C)c1O)CC[C@@](C)(CCC[C@H](C)CCC[C@H](C)CCCC(C)C)O2 [α-TOC] | 65.39 ± 2.37% | 83.47 ± 0.98% | 85.89 ± 2.62% | 88.89% | 63.28 ± 3.28% | 73.51 ± 4.14% | 76.94 ± 0.71% | 78.07% | 0.391 ± 0.01 | 0.904 ± 0.00 | 1.563 ± 0.09 | 2.460 ± 0.09 and 2.460 | –

— publication PMC12277336, “Hypericum empetrifolium subsp. empetrifolium: an assessment of its antifungal, antidiabetic, anti-aging, and neuroprotective potential” (Frontiers in Pharmacology, 2025)
